{"source": "paper PMC5357620", "about": "“The NiFe Hydrogenases of the Tetrachloroethene-Respiring Epsilonproteobacterium Sulfurospirillum multivorans: Biochemical Studies and Transcription Analysis” (Frontiers in Microbiology, 2017)", "biological_target": "T1, membrane-bound hydrogenase (MBH, HydABC) (Sulfurospirillum multivorans, UniProt A0AA86ALJ1+A0AA86ANH9+A0AA86DZD7)", "T1 construct": "gene hydB; HydA TAT signal peptide cleaved; predicted HydB 62, HydA 34, HydC 26 kDa; dimer of heterotrimers, about 270 kDa; with Periplasmic [NiFe] hydrogenase, large subunit", "T1 sequence (A0AA86DZD7 1-561)": "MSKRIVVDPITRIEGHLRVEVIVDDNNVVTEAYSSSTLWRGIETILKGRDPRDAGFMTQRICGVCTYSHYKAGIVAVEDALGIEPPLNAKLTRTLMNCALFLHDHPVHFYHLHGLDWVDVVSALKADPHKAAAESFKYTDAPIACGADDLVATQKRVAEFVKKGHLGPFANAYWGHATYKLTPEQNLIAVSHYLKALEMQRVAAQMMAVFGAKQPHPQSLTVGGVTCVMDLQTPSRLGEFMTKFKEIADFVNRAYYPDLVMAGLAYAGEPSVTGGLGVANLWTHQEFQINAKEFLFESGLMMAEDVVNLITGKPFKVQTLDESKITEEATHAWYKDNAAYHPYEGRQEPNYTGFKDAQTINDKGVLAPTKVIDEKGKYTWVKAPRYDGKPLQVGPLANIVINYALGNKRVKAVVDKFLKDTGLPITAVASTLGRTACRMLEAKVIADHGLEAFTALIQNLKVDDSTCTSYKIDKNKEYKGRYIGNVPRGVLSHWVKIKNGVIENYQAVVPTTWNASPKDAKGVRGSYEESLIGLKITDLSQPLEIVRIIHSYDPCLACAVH", "T1 sequence (A0AA86ALJ1 68-385)": "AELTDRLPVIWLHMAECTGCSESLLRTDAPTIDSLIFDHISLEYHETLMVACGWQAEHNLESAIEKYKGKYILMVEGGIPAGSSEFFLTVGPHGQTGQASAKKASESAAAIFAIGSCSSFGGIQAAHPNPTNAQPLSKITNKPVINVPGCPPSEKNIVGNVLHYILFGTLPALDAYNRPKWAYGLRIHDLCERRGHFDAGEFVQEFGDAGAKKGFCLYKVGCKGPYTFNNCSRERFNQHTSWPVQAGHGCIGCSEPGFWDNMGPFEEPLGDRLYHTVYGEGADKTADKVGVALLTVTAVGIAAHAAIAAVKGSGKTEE", "T1 sequence (A0AA86ANH9 1-225)": "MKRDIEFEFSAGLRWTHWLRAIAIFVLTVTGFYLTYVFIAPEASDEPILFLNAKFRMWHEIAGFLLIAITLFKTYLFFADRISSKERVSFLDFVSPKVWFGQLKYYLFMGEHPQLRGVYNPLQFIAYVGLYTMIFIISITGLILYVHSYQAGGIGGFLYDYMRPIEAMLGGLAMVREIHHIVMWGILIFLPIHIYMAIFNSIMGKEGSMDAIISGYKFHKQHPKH", "experiment": "spectrophotometric H2-dependent DMN reduction, […] nm minus […] nm", "type": "biochemical", "settings": "H2 as electron donor; 0.2 mM DMN; 50 mM glycylglycine pH 8.0; 0.5 mM DTT; electron acceptor, presumably via HydC cytochrome b; partially purified enzyme", "data": [{"compound": "CC1=C(C)C(=O)c2ccccc2C1=O", "note": "[DMN, 2,3-dimethyl-1,4-naphthoquinone]", "values": [{"measurement": "spectrophotometric H2-dependent DMN reduction, 270 nm minus 290 nm", "result": "both fractions showed activity with DMN as electron acceptor"}]}]}
